Where a name gives a salt, the structure may show the parent alone.
How the values were obtained:
PCP receptor = PCP receptor radioligand binding assay ([3H]MK-801, rat brain membranes); details: read-out: [3H-MK801] IC50; displacement of [3H]MK-801, rat brain membranes
sigma receptor = test: Sigma receptor binding assay ([3H]DTG, guinea pig brain membrane homogenates); details: displacement of [3H]DTG, guinea pig brain membranes
Description: Sigma Receptor Binding Assay
Briefly, frozen whole guinea-pig brains (Biotrol, Indianapolis, Ind.) were homogenized in 10 volumes (w/v) of ice-cold 320 mM sucrose using a Brinkman polytron. The homogenate was centrifuged at 1,000×g for 20 minutes at 4° C. The supernatant was centrifuged at 20,000×g for 20 minutes at 4° C. The resulting pellet was resuspended in 10 initial volumes of 50 mM Tris/HCl buffer at pH 7.4 and centrifuged at 20,000×g for 20 minutes at 4° C. The resulting pellet was resuspended in 5 initial volumes ice-cold 50 mM Tris/HCl (pH 7.4), and the final volume was adjusted to yield a protein concentration of 3 mg/ml. Aliquots of 20-ml were stored at -70° C. until used, with no detectable loss of binding.
The protein concentration in the 1-ml final incubation volume was 800 μg/ml, corresponding to 32 mg of brain tissue (original wet weight) and to a tissue concentration within the linear range for specific binding. […] Incubations were terminated after 90 minutes at room temperature by addition of 4 ml of ice-cold 50 mM Tris/HCl (pH 7.4) and rapid filtration of the membrane suspension through Whatman GF/B glass-fiber filters under vacuum, using a 48-well cell harvester (Brandel). The filters were washed 2 times with 4 ml of 50 mM Tris/HCl (pH 7.4). […] IC50 values were determined by non-linear regression analysis.

Row | Structure (SMILES) | IC50 (PCP receptor) [nM] | IC50 (sigma receptor) [nM]
1 | CCc1cccc(NC(=N)Nc2cccc(Cl)c2)c1 [Compd. No. 3 (Table I)] | 146 | 15.5
2 | CCc1cccc(NC(=N)Nc2cc(C(F)(F)F)ccc2Br)c1 [Compd. No. 4 (Table I), N-(3-Ethylphenyl)-N'-(2-bromo-5-trifluoromethylphenyl)guanidine hydrochloride] | 86.9 | 10.3
3 | CCc1cccc(NC(=N)Nc2cc(C(F)(F)F)ccc2Cl)c1 [Compd. No. 6 (Table I), N-(3-Ethylphenyl)-N'-(2-chloro-5-trifluoromethylphenyl)guanidine hydrochloride] | 57.1 | 14.2
4 | CCc1cccc(NC(=N)Nc2cc(C)ccc2Cl)c1 [Compd. No. 7 (Table I), N-(3-Ethylphenyl)-N'-(2-chloro-5-methylphenyl)guanidine hydrochloride] | 100 | 30.6
5 | CCc1cccc(NC(=N)Nc2cc(CC)ccc2Cl)c1 [Compd. No. 8 (Table I), N-(3-Ethylphenyl)-N'-(2-chloro-5-ethylphenyl)guanidine hydrochloride] | 45.2 | 2.04
6 | CCc1cccc(NC(=N)Nc2cccc(CC)c2)c1 [Compd. No. 9 (Table I)] | 168 | 8
7 | CCc1cccc(N(C)C(=N)Nc2cc(Cl)ccc2Cl)c1 [Compd. No. 10 (Table I), N-(3-ethylphenyl)-N-methyl-N'-(2,5-dichlorophenyl)guanidine hydrochloride] | 84.6 | 28.5
8 | CCc1cccc(N(C)C(=N)Nc2cc(Br)ccc2Br)c1 [Compd. No. 11 (Table I), N-(3-ethylphenyl)-N-methyl-N'-(2,5-dibromophenyl)guanidine hydrochloride] | 47.6 | 40.2
9 | CCc1cccc(N(C)C(=N)Nc2cccc(Cl)c2)c1 [Compd. No. 12 (Table I)] | 646 | 43.5
10 | CCc1cccc(N(C)C(=N)Nc2cc(C(F)(F)F)ccc2Br)c1 [Compd. No. 13 (Table I), N-(3-Ethylphenyl)-N-methyl-N'-(2-bromo-5-trifluoromethylphenyl)guanidine hydrochloride] | 102 | 208
11 | CCc1cccc(N(C)C(=N)Nc2cc(C(F)(F)F)ccc2F)c1 [Compd. No. 14 (Table I), N-(3-Ethylphenyl)-N-methyl-N'-(2-fluoro-5-trifluoromethylphenyl)guanidine hydrochloride] | 252 | 85
12 | CCc1cccc(N(C)C(=N)Nc2cc(C(F)(F)F)ccc2Cl)c1 [Compd. No. 15 (Table I), N-(3-Ethylphenyl)-N-methyl-N'-(2-chloro-5-trifluoromethylphenyl)guanidine hydrochloride] | 131 | 120
13 | CCc1cccc(N(C)C(=N)Nc2cc(CC)ccc2Cl)c1 [Compd. No. 17 (Table I), N-(3-Ethylphenyl)-N-methyl-N'-(2-chloro-5-ethylphenyl)guanidine hydrochloride] | 53 | 115
14 | CCc1cccc(N(C)C(=N)Nc2cccc(Br)c2)c1 [Compd. No. 19 (Table I)] | 105 | 40
15 | CCc1cccc(N(C)C(=N)Nc2cc(CC)ccc2F)c1 [Compd. No. 20 (Table I), N-(3-Ethylphenyl)-N-methyl-N'-(2-fluoro-5-ethylphenyl)guanidine hydrochloride] | 126 | 112
16 | CCc1cccc(NC(=N)Nc2cc(CC)ccc2F)c1 [Compd. No. 21 (Table I), N-(3-Ethylphenyl)-N'-(2-fluoro-5-ethylphenyl)guanidine hydrochloride] | 64.8 | 7.4
17 | CCc1cccc(N(C)C(=N)Nc2cc(CC)ccc2Br)c1 [Compd. No. 22 (Table I), N-(3-Ethylphenyl)-N-methyl-N'-(2-bromo-5-ethylphenyl)guanidine hydrochloride] | 16.7 | 203
18 | CCc1cccc(NC(=N)Nc2cc(CC)ccc2Br)c1 [Compd. No. 23 (Table I), N-(3-Ethylphenyl)-N'-(2-bromo-5-ethylphenyl)guanidine hydrochloride] | 38.3 | 5.07
19 | CCc1cccc(N(C)C(=N)Nc2cc(SC)ccc2Cl)c1 [Compd. No. 24 (Table I), N-13-Ethylphenyl)-N-methyl-N'-(2-chloro-5-methylthiophenyl)guanidine hydrochloride] | 6.7 | 310
20 | CCc1cccc(NC(=N)Nc2cc(SC)ccc2Cl)c1 [Compd. No. 25 (Table I), N-(3-Ethylphenyl)-N'-(2-chloro-5-methylthiophenyl)guanidine hydrochloride] | 15.4 | 15.8
21 | CCc1cccc(N(C)C(=N)N(C)c2cc(Cl)ccc2Cl)c1 [Compd. No. 26 (Table I), N-(3-Ethylphenyl)-N-methyl-N'-(2,5-dichlorophenyl)-N'-methylguanidine hydrochloride] | 93.7 | –

Row | Structure (SMILES) | IC50 (PCP receptor) [nM] | IC50 (sigma receptor) [nM]
22 | CCc1cccc(N(C)C(=N)N(C)c2cc(Br)ccc2Br)c1 [Compd. No. 27 (Table I), N-(3-Ethylphenyl)-N-methyl-N'-(2,5-dibromophenyl)-N'-methylguanidine hydrochloride] | 35.5 | 380
23 | CCc1cccc(N(C)C(=N)N(C)c2cc(CC)ccc2Cl)c1 [Compd. No. 28 (Table I), N-(3-Ethylphenyl)-N-methyl-N'-(2-chloro-5-ethylphenyl)-N'-methylguanidine hydrochloride] | 145 | –
24 | CCc1ccc(Cl)c(NC(=N)Nc2cc(C)ccc2Cl)c1 [Compd. No. 29 (Table I)] | 54.7 | 36.1
25 | N=C(Nc1cc(Cl)ccc1Cl)Nc1cccc2ccccc12 [Compd. No. 31 (Table I), N-(1-naphthyl)-N'-(2,5-dichlorophenyl)guanidine] | 41 | 25
26 | N=C(Nc1cc(Br)ccc1Br)Nc1cccc2ccccc12 [Compd. No. 32 (Table I), N-(1-Naphthyl)-N'-(2,5-dibromophenyl)guanidine hydrochloride] | 48.6 | 37.6
27 | Cc1ccc(C)c(NC(=N)Nc2cccc3ccccc23)c1 [Compd. No. 33 (Table I), N-(1-Naphthyl)-N'-(2,5-dimethylphenyl)guanidine hydrochloride] | 79.2 | 27.4
28 | Cc1cccc(NC(=N)Nc2cccc3ccccc23)c1 [Compd. No. 38 (Table I)] | 192 | 75
29 | N=C(Nc1cc(C(F)(F)F)ccc1F)Nc1cccc2ccccc12 [Compd. No. 39 (Table I), N-(1-Naphthyl)-N'-(2-fluoro-5-trifluoromethylphenyl)guanidine hydrochloride] | 38.4 | 79.4
30 | N=C(Nc1cc(C(F)(F)F)ccc1Cl)Nc1cccc2ccccc12 [Compd. No. 40 (Table I), N-(1-Naphthyl)-N'-(2-chloro-5-trifluoromethylphenyl)guanidine hydrochloride] | 38.6 | 52.5
31 | CN(C(=N)Nc1cccc2ccccc12)c1cccc(Br)c1 [Compd. No. 53 (Table I)] | 54 | –
32 | CSc1cccc(N(C)C(=N)Nc2cc(SC)ccc2Br)c1 [Compd. No. 63 (Table I), N-(3-Methylthiophenyl)-N-methyl-N'-(2-bromo-5-methylthiophenyl)guanidine] | 2.15 | –
33 | CCc1ccc(Br)c(NC(=N)N(C)c2cccc(SC)c2)c1 [Compd. No. 64 (Table I), N-(3-Methylthiophenyl)-N-methyl-N'-(2-bromo-5-ethylphenyl)guanidine hydrochloride] | – | 180
34 | CSc1cccc(N(C)C(=N)Nc2cc(Br)ccc2Br)c1 [Compd. No. 65 (Table I), N-(3-Methylthiophenyl)-N-methyl-N'-(2,5-dibromophenyl)guanidine hydrochloride] | 5.38 | –
35 | CN(C(=N)Nc1cc(Cl)ccc1Cl)c1cccc(C(F)(F)F)c1 [Compd. No. 68 (Table I), N-(3-Trifluoromethylphenyl)-N-methyl-N'-(2,5-dichlorophenyl)guanidine hydrochloride] | – | 110
36 | CSc1ccc(Cl)c(NC(=N)N(C)c2cccc(Br)c2)c1 [Compd. No. 72 (Table I), N-(3-Bromophenyl)-N-methyl-N'-(2-chloro-5-methylthiophenyl)guanidine hydrochloride] | 4.65 | –
37 | CN(C(=N)Nc1cc(Br)ccc1Br)c1cccc(OC(F)(F)F)c1 [Compd. No. 73 (Table I), N-(3-Trifluoromethoxyphenyl)-N'-(2,5-dibromophenyl)-N-methylguanidine hydrochloride] | 25.6 | –
38 | CCc1ccc(Br)c(NC(=N)N(C)c2cccc(OC(F)(F)F)c2)c1 [Compound 74] | 16 | –
39 | CN(C(=N)Nc1cc(Br)ccc1Br)c1cccc(S(C)(=O)=O)c1 [Compound 75] | 530 | –
40 | CN(C(=N)Nc1cc(Br)ccc1Br)c1cccc([S+](C)[O-])c1 (stereo not shown) [Compound 76] | 322 | –
41 | CSc1ccc(Cl)c(NC(=N)N(C)c2cccc(I)c2)c1 [Compound 77] | 2.11 | –
42 | CCc1ccc(Cl)c(NC(=N)Nc2cccc(I)c2)c1 [Compound 78] | 13.7 | –

Source: patent US6153604A, “Therapeutic substituted guanidines” (Cambridge NeuroScience, Inc., priority 1995, dated 2000)
